The assay has as its system human T-bet. Nature of the assay: HEKT-bet-luc assay (normalized HEKT-bet IC50). The format is cell-based. As to conditions: Homo sapiens, HEK293, 24 h, Table 4, engineered HEK cells, compound 24 hours, normalized to reference ER-819544. The procedure:
HEKT-bet-luc assay: This assay measures a T-bet dependent reporter (luciferase) activity in engineered HEK cells that express a human T-bet and a T-box responsive element driving luciferase reporter. HEKT-bet cells were plated at 2×10^4/well in 96-well plate and compound was added into cell culture for 24 hours. Luciferase activity was measured by adding 50 μl of Steady-Glo reagent (Promega) and samples were read in Victor V reader (PerkinElmer). The activity of compound was determined by comparing compound treated samples to non-compound treated vehicle controls. The IC50 values were calculated utilizing a maximum value corresponding to the amount of luciferase in the absence of a test compound and a minimum value corresponding to a test compound value obtained at maximum inhibition.
Determination of Normalized HEKT-bet IC50 values: Compounds were assayed in microtiter plates. Each plate included a reference compound which was ER-819544. The un-normalized IC50 value for a particular compound was divided by the IC50 value determined for the reference compound in the same microtiter plate to provide a relative potency value. The relative potency value was then multiplied by the established potency of the reference compound to provide the normalized HEKT-bet IC50 value. […] The IC50 values provided herein were obtained using this normalization method.
For the compound `COc1cc2c(c(OC)c1)[C@@H](C)C=C1N(C2)C(=O)N(CCO)C12CCN(Cc1cc(C)cc(C)c1)CC2` (single isomer, unassigned) [ER-819786], 30 nM corresponded to half-maximal inhibition (IC50).
As for `COc1cc2c(c(OC)c1)[C@H](C)C=C1N(C2)C(=O)N(CCO)C12CCN(Cc1cc(C)cc(C)c1)CC2` (single isomer, unassigned) [ER-819787], the IC50 was found to be 170 nM. Compared with the last compound, the IC50 is about 5.7-fold higher.
In turn, `COc1cc2c(c(OC)c1)[C@@H](C)C=C1N(C2)C(=O)N(C[C@@H](O)CO)C12CCN(Cc1cc(C)cc(C)c1)CC2` (single isomer, unassigned) [ER-819788] gave an IC50 of 30 nM.
Consider `COc1cc2c(c(OC)c1)[C@H](C)C=C1N(C2)C(=O)N(C[C@@H](O)CO)C12CCN(Cc1cc(C)cc(C)c1)CC2` (single isomer, unassigned) [ER-819789], for which half-maximal inhibition (IC50) required 170 nM.
As to `C=C(C)CN1C(=O)N2Cc3cc(OC)cc(OC)c3[C@@H](C)C=C2C12CCN(Cc1cc(C)cc(C)c1)CC2` (single isomer, unassigned) [ER-820006], the IC50 is 60 nM.
Compound `C=C(C)CN1C(=O)N2Cc3cc(OC)cc(OC)c3[C@H](C)C=C2C12CCN(Cc1cc(C)cc(C)c1)CC2` (single isomer, unassigned) [ER-820007] returned an IC50 of 1260 nM.
For `CCN1C(=O)N2Cc3cc(OC)cc(OC)c3[C@@H](C)C=C2C12CCN(Cc1nccn1C)CC2` [ER-811278-01], the IC50 came out at 37 nM. This IC50 lies about 34-fold lower than the previous one.
`CCN1C(=O)N2Cc3cc(OC)cc(OC)c3[C@@H](C)C=C2C12CCN(Cc1csnn1)CC2` [ER-811279-01] had an IC50 of 210 nM.
The value for `CCN1C(=O)N2Cc3cc(OC)cc(OC)c3[C@@H](C)C=C2C12CCN(Cc1nc(C)oc1C)CC2` [ER-811283-01] was 53 nM; that for `CCN1C(=O)N2Cc3cc(OC)cc(OC)c3[C@@H](C)C=C2C12CCN(Cc1ccc3nccn3c1)CC2` [ER-811284-01] was 88 nM.
With `CCN1C(=O)N2Cc3cc(OC)cc(OC)c3[C@@H](C)C=C2C12CCN(Cc1cccc3c1OCCO3)CC2` [ER-811291-01], it took 120 nM to reach half-maximal inhibition (IC50).
`CCN1C(=O)N2Cc3cc(OC)cc(OC)c3[C@@H](C)C=C2C12CCN(Cc1cn3ccccc3n1)CC2` [ER-811292-01] came in with an IC50 of 130 nM.
`CCN1C(=O)N2Cc3cc(OC)cc(OC)c3[C@@H](C)C=C2C12CCN(Cc1cnc3ccccc3n1)CC2` [ER-811297-01] yielded an IC50 of 74 nM.
Next, `CCN1C(=O)N2Cc3cc(OC)cc(OC)c3[C@@H](C)C=C2C12CCN(Cc1cccc3[nH]ccc13)CC2` [ER-811300-01]: 35 nM; `CCN1C(=O)N2Cc3cc(OC)cc(OC)c3[C@@H](C)C=C2C12CCN(Cc1cc3nccnc3s1)CC2` [ER-811301-01]: 260 nM.
`CCN1C(=O)N2Cc3cc(OC)cc(OC)c3[C@@H](C)C=C2C12CCN(Cc1cccc(-n3cncn3)c1)CC2` [ER-811302-01] returned an IC50 of 250 nM.
The value for `CCN1C(=O)N2Cc3cc(OC)cc(OC)c3[C@@H](C)C=C2C12CCN(Cc1ccc3occc3c1)CC2` [ER-811304-01] was 100 nM; that for `CCN1C(=O)N2Cc3cc(OC)cc(OC)c3[C@@H](C)C=C2C12CCN(Cc1c(C)nc3ccccn13)CC2` [ER-811305-01] was 31 nM.
For the compound `CCN1C(=O)N2Cc3cc(OC)cc(OC)c3[C@@H](C)C=C2C12CCN(Cc1cccc3c1OCC3)CC2` [ER-811306-01], the IC50 is 100 nM. This IC50 is about 3.2-fold higher than that of the compound before.
For the compound `CCN1C(=O)N2Cc3cc(OC)cc(OC)c3[C@@H](C)C=C2C12CCN(Cc1cc3ccccc3o1)CC2` [ER-811308-01], the IC50 came to 56 nM.
For the compound `CCN1C(=O)N2Cc3cc(OC)cc(OC)c3[C@@H](C)C=C2C12CCN(Cc1cn3ccsc3n1)CC2` [ER-811309-01], the concentration for half-maximal inhibition (IC50) is 130 nM.
Regarding `CCN1C(=O)N2Cc3cc(OC)cc(OC)c3[C@@H](C)C=C2C12CCN(Cc1c3ccccc3nn1C)CC2` [ER-811312-01], the IC50 worked out at 77 nM.
Compound `CCN1C(=O)N2Cc3cc(OC)cc(OC)c3[C@@H](C)C=C2C12CCN(Cc1cccc(-n3cccn3)c1)CC2` [ER-811317-01] yielded an IC50 of 74 nM. This IC50 and that of the compound before are within 1.5-fold of each other.

The values are drawn from patent publication US20110065916A1, “METHOD OF MAKING IMIDAZOAZEPINONE COMPOUNDS” (priority 2007, published 2011).
